{"source": "patent US20260325605A1", "about": "“INHIBITORS” (Zealand Pharma A/S, priority 2022, published 2026)", "key": {"[1]": {"system": "KLH-induced DTH ear swelling in rats", "assay": "Example 11: Minimal effective dose in KLH-induced DTH model", "format": "in vivo, rat (Lewis)", "experimental": "Healthy male Lewis rats aged 8-9 weeks were immunized on day 0 with 200 μL keyhole limpet hemocyanin (KLH) (from Sigma, cat.no. H7017) (4 mg/mL) emulsified in complete Freund's adjuvant (CFA) (Difco, cat.no. 263810) subcutaneously (SC) at the base of the tail.\nTo elicit a KLH-specific T cell-mediated local inflammation, rats were challenged intradermally at indicated timepoints (days 7, 9, 11 or 13 post-immunisation) with 40 μL KLH/NaCl 0.9% (2 mg/mL) in the left ear. Ear edemas were measured after 24-48 hrs and the right ear that was left untreated served as control. A schematic overview of the protocol is depicted in FIG. 1. […]\nThis study was conducted as described in example 8 with the difference that the rats were only challenged intradermally at days 7 or 11 post-immunisation (i.e. day 1 and day 5 after treatment) with 40 μL KLH/NaCl 0.9% (2 mg/mL) in the left ear. A schematic overview of the protocol is depicted in FIG. 5.\nThe doses of Kv1.3 inhibitor treatment able to reduce the DTH ear swelling response was investigated by comparing the response in rats (n=8/group) treated with vehicle to that of rats treated with different doses of peptide 100. Vehicle or peptide 100 dissolved in vehicle was administered SC (2 mL/kg) on day 6. The test dose of Kv1.3 inhibitor was 1, 3, 10, 30 or 100 nmol/kg. Test vehicle was 10 mM phosphate, 0.8% w/v NaCl, 0.05% w/v polysorbate20, pH 6.\nAs readout of efficacy, the thickness of the induced ear 24 hrs and 48 hrs after respective ear challenge was measured and compared to vehicle control. Ear thickness 24 hrs after challenge is shown in Table 15 and FIG. 8 and ear thickness 48 hrs after challenge is shown in Table 16 and FIG. 9."}, "[2]": {"system": "T-cell activation in rat whole blood", "assay": "Example 4: IL-17A release in thapsigargin stimulated rat whole blood", "format": "cell-based, rat (Lewis or Sprague-Dawley)", "settings": "24 Hr, at least 2 replicates, unit inferred, read-out: IC50 (inhibition of IL-17A release)", "in_short": "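Heparinised whole blood from naïve Lewis or Sprague-Dawley rats preincubated ≥5 min at RT with peptide, then stimulated with thapsigargin (40 μM stock added as one quarter of well volume) for 24 h at 37 °C. Supernatant IL-17A measured by ELISA; IC50 from curves normalised to stimulated and unstimulated controls, ≥2 replicates.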"}}}
{"substance": "H-P[Nle]E[Nle]RC(1)SASVEC(2)KQKC(3)LAAIGSIFGKC(1)[Nle]NKKC(2)KC(3)YPR-OH [Peptide 100]", "values": [{"measurement": "Mean ear thickness of KLH-induced ear", "setting": "[1]; 1 nmol/kg s.c., challenge day 11, 24 hrs post-challenge, vehicle 0.902, p=0.0872", "result": "0.872±0.037", "unit": "mm"}, {"measurement": "Mean ear thickness of KLH-induced ear", "setting": "[1]; 1 nmol/kg s.c., challenge day 11, 48 hrs post-challenge, vehicle 0.876, p=0.1953", "result": "0.854±0.038", "unit": "mm"}, {"measurement": "Mean ear thickness of KLH-induced ear", "setting": "[1]; 3 nmol/kg s.c., challenge day 11, 24 hrs post-challenge, vehicle 0.902, p<0.0001", "result": "0.814±0.014", "unit": "mm"}, {"measurement": "Mean ear thickness of KLH-induced ear", "setting": "[1]; 3 nmol/kg s.c., challenge day 11, 48 hrs post-challenge, vehicle 0.876, p=0.0001", "result": "0.814±0.019", "unit": "mm"}, {"measurement": "Mean ear thickness of KLH-induced ear", "setting": "[1]; 10 nmol/kg s.c., challenge day 11, 24 hrs post-challenge, vehicle 0.902, p<0.0001", "result": "0.796±0.043", "unit": "mm"}, {"measurement": "Mean ear thickness of KLH-induced ear", "setting": "[1]; 10 nmol/kg s.c., challenge day 11, 48 hrs post-challenge, vehicle 0.876, p=0.0001", "result": "0.794±0.036", "unit": "mm"}, {"measurement": "Mean ear thickness of KLH-induced ear", "setting": "[1]; 30 nmol/kg s.c., challenge day 11, 24 hrs post-challenge, vehicle 0.902, p<0.0001", "result": "0.754±0.017", "unit": "mm"}, {"measurement": "Mean ear thickness of KLH-induced ear", "setting": "[1]; 30 nmol/kg s.c., challenge day 11, 48 hrs post-challenge, vehicle 0.876, p<0.0001", "result": "0.736±0.03", "unit": "mm"}, {"measurement": "Mean ear thickness of KLH-induced ear", "setting": "[1]; 100 nmol/kg s.c., challenge day 11, 24 hrs post-challenge, vehicle 0.902, p<0.0001", "result": "0.751±0.009", "unit": "mm"}, {"measurement": "Mean ear thickness of KLH-induced ear", "setting": "[1]; 100 nmol/kg s.c., challenge day 11, 48 hrs post-challenge, vehicle 0.876, p<0.0001", "result": "0.731±0.016", "unit": "mm"}, {"measurement": "Mean ear thickness of KLH-induced ear", "setting": "[1]; 24 hrs post-challenge, day 2 post-treatment, 100 nmol/kg SC", "result": 0.736, "unit": "mm"}, {"measurement": "Mean ear thickness of KLH-induced ear", "setting": "[1]; 24 hrs post-challenge, day 6 post-treatment, 1 nmol/kg SC", "result": 0.872, "unit": "mm"}, {"measurement": "Mean ear thickness of KLH-induced ear", "setting": "[1]; 24 hrs post-challenge, day 6 post-treatment, 3 nmol/kg SC", "result": 0.814, "unit": "mm"}, {"measurement": "Mean ear thickness of KLH-induced ear", "setting": "[1]; 24 hrs post-challenge, day 6 post-treatment, 10 nmol/kg SC", "result": 0.796, "unit": "mm"}, {"measurement": "Mean ear thickness of KLH-induced ear", "setting": "[1]; 24 hrs post-challenge, day 6 post-treatment, 30 nmol/kg SC", "result": 0.754, "unit": "mm"}, {"measurement": "Mean ear thickness of KLH-induced ear", "setting": "[1]; 24 hrs post-challenge, day 6 post-treatment, 100 nmol/kg SC", "result": 0.751, "unit": "mm"}, {"measurement": "Mean ear thickness of KLH-induced ear", "setting": "[1]; 48 hrs post-challenge, day 3 post-treatment, 100 nmol/kg SC", "result": 0.671, "unit": "mm"}, {"measurement": "Mean ear thickness of KLH-induced ear", "setting": "[1]; 48 hrs post-challenge, day 7 post-treatment, 1 nmol/kg SC", "result": 0.854, "unit": "mm"}, {"measurement": "Mean ear thickness of KLH-induced ear", "setting": "[1]; 48 hrs post-challenge, day 7 post-treatment, 3 nmol/kg SC", "result": 0.814, "unit": "mm"}, {"measurement": "Mean ear thickness of KLH-induced ear", "setting": "[1]; 48 hrs post-challenge, day 7 post-treatment, 10 nmol/kg SC", "result": 0.794, "unit": "mm"}, {"measurement": "Mean ear thickness of KLH-induced ear", "setting": "[1]; 48 hrs post-challenge, day 7 post-treatment, 30 nmol/kg SC", "result": 0.736, "unit": "mm"}, {"measurement": "Mean ear thickness of KLH-induced ear", "setting": "[1]; 48 hrs post-challenge, day 7 post-treatment, 100 nmol/kg SC", "result": 0.731, "unit": "mm"}, {"measurement": "minimal dose to obtain effect", "setting": "[1]; KLH-induced DTH model, s.c.", "result": 3, "unit": "nmol/kg"}, {"measurement": "Mean ear thickness of KLH-induced ear", "setting": "[1]; s.c. day 6, dose not given, challenge day 7, 24 hrs post-challenge, vehicle 0.849, p<0.0001", "result": "0.736±0.026", "unit": "mm"}, {"measurement": "Mean ear thickness of KLH-induced ear", "setting": "[1]; s.c. day 6, dose not given, challenge day 7, 48 hrs post-challenge, vehicle 0.777, p<0.0001", "result": "0.671±0.022", "unit": "mm"}, {"measurement": "IC50", "setting": "[2]", "result": 430, "unit": "pM"}]}
